System: Trypanosoma brucei
Experiment: ALAMARBLUE cell viability / growth assay of T. brucei cells
Type: cell-based
Conditions: for % Inhibition @2 μM / % Inhibition @10 μM / % Inhibition @5 μM: T. brucei, 72 hours, normalized to DMSO control
Experimental: To determine cell growth rate, WT and two TbRPA1 RNAi KD strains (KD1 and KD2) were seeded at a density of 1×10^5 cells/ml and cultured with or without tetracycline for the induction of RNAi. Cells were counted every 12 hours for 2 days. To determine the viability of TbRPA1-depleted cells, ALAMARBLUE® assay (Thermo Fisher, an established colorimetric technique that detects metabolically active cells) was used. Cells from each time point were incubated with ALAMARBLUE® dye for 4-6 hours and percentage of live cells was determined by measuring resorufin converted from resazurin by reducing environment of live cells. Synergy H1 microplate reader (BioTek) was used with 560/590 nm (excitation/emission) filter settings and Relative Fluorescence Unit (RFU) values were obtained. The percentage of viable cells were calculated from the RFU values.
The initial assessment of JC-229's inhibitory effect on T. brucei cell growth was performed at 50 μM concentration. Trypanosome cells were seeded at 1×10^3 cells/ml density in 180 μl in a 96-well culture plate in triplicate. These cells were incubated with 50 μM JC-229 for 24, 48, and 72 hours. DMSO was used as a vehicle control at 0.0075%. JC-229-treated culture and control cultures were analyzed with the ALAMARBLUE® dye as described above.
To obtain the EC50 value of JC-229, T. brucei cells were seeded at 1×10^3 cells/ml density in 180 μl in a 96-well culture plate in triplicate. These cells were incubated for 72 hours with increasing concentrations of JC-229, (0.5 μM to 50 μM) and cell viability was determined using the ALAMARBLUE® dye as described above.
Trypanosoma brucei cytotoxicity of JC-229 and analogs were measured using ALAMARBLUE® assay (Rampersad, S. N. Multiple applications of ALAMARBLUE® as an indicator of metabolic function and cellular health in cell viability bioassays. Sensors (Basel) 12, 12347-12360 (2012). Trypanosome cells were seeded at 1×10^3 cells/ml density in 180 μl in a 96-well culture plate in triplicate. These cells were incubated with indicated concentration of JC compounds for 72 hours. DMSO was used as a vehicle control at 0.0075%. JC compound-treated cultures were then incubated with ALAMARBLUE® dye for 4-6 hours and percentage of live cells was determined using Synergy H1 microplate reader (BioTek) with 560/590 nm (excitation/emission) filter settings and Relative Fluorescence Unit (RFU) values were obtained. The percentage of viable cells were calculated from the RFU values by normalizing to DMSO treated control. In one embodiment, the inhibitor is characterized in that it provides at least 50%, at least 80% or at least 90% inhibition at a concentration of 5 μM when tested in accordance with the above conditions.

| SMILES | % Inhibition @2 μM | % Inhibition @10 μM | % Inhibition @5 μM | effect on T. brucei proliferation (even at 60 μM) |
| --- | --- | --- | --- | --- |
| Cc1ccc(C(=O)Nc2ccc(Cl)c(Cl)c2)cc1S(=O)(=O)NCCNC(=O)[C@H](N)Cc1ccccc1 [JC-922] | −7% | 19% | – | – |
| Cc1ccc(C(=O)Nc2ccc(Cl)c(Cl)c2)cc1S(=O)(=O)N1CCC(NS(=O)(=O)c2ccc(Br)cc2)CC1 [JC-1014] | 100% | – | 100% | – |
| Cc1ccc(C(=O)Nc2ccc(Cl)c(Cl)c2)cc1S(=O)(=O)N1CCCC(NC(=S)Nc2ccc(F)cc2)C1 (stereo not shown) [JC-965] | 64% | – | 100% | – |
| Cc1ccc(C(=O)Nc2ccc(Cl)c(Cl)c2)cc1S(=O)(=O)NCCCNC(=O)c1ccccc1 [JC-935] | 3% | 19% | – | – |
| Cc1ccc(C(=O)NNc2ccccc2)cc1S(=O)(=O)Nc1ccc(Cl)c(Cl)c1 [JC-860] | 5% | 24% | – | – |
| COc1ccc(NC(=S)NC2CCN(S(=O)(=O)c3cc(C(=O)Nc4ccc(Cl)c(Cl)c4)ccc3C)CC2)cc1 [JC-1016] | 52% | – | 100% | – |
| Cc1ccc(C(=O)Nc2ccc(Cl)c(Cl)c2)cc1S(=O)(=O)N1CCCC(NC(=O)c2ccccc2)C1 (stereo not shown) [JC-931] | 3% | 100% | 98.5% | – |
| Cc1ccc(C(=O)NCCO)cc1S(=O)(=O)Nc1ccc(Cl)c(Cl)c1 [JC-864] | −20% | 42% | – | – |
| Cc1ccc(C(=O)Nc2ccc(Cl)c(Cl)c2)cc1S(=O)(=O)Nc1cc(C(C)C)n[nH]1 [JC-888] | 16% | 100% | 62.1% | – |
| Cc1ccc(C(=O)Nc2ccc(Cl)c(Cl)c2)cc1S(=O)(=O)N1CCC(NS(=O)(=O)c2ccc(COc3ccccc3)cc2)CC1 [JC-1013] | 13% | – | −9% | – |
| Cc1ccc(C(=O)Nc2ccc(Cl)c(Cl)c2)cc1S(=O)(=O)Nc1nc2ccccc2[nH]1 [JC-873] | −4% | 100% | 1% | – |
| Cc1ccc(C(=O)Nc2ccc(Cl)c(Cl)c2)cc1S(=O)(=O)N1CCC(NC(=S)Nc2cccc(C(F)(F)F)c2)CC1 [JC-1017] | 100% | – | 100% | – |
| Cc1ccc(C(=O)Nc2ccc(Cl)c(Cl)c2)cc1S(=O)(=O)n1c(CN)nc2ccccc21.O=C(O)C(F)(F)F [JC-904] | 14% | 2% | – | – |
| Cc1ccc(C(=O)Nc2ccc(Cl)c(Cl)c2)cc1S(=O)(=O)C1CCCNC1.O=C(O)C(F)(F)F (stereo not shown) [JC-951] | 29% | – | 100% | – |
| Cc1ccc(C(=O)Nc2ccc(Cl)c(Cl)c2)cc1S(=O)(=O)N(CCCCO)Cc1ccccc1 [JC-891] | 13% | 100% | 88.8% | – |
| Cc1ccc(C(=O)NCCN(C)C)cc1S(=O)(=O)Nc1ccc(Cl)c(Cl)c1.O=C(O)C(F)(F)F [JC-863] | −40% | 2% | – | – |
| Cc1ccc(C(=O)Nc2ccc(Cl)c(Cl)c2)cc1S(=O)(=O)N1CCCC(NC(=O)Cc2ccccc2)C1 (stereo not shown) [JC-930] | 4% | 100% | 99.7% | – |
| Cc1ccc(C(=O)Nc2ccc(Cl)c(Cl)c2)cc1S(=O)(=O)N1CCCC(N)C1.O=C(O)C(F)(F)F (stereo not shown) [JC-929] | 5% | 100% | 99.7% | – |
| Cc1ccc(C(=O)Nc2ccc(Cl)c(Cl)c2)cc1S(=O)(=O)NCCNC(=O)c1ccccc1 [JC-920] | −5% | −9% | – | – |

| SMILES | % Inhibition @2 μM | % Inhibition @10 μM | % Inhibition @5 μM | effect on T. brucei proliferation (even at 60 μM) |
| --- | --- | --- | --- | --- |
| Cc1ccc(C(=O)Nc2ccc(Cl)c(Cl)c2)cc1S(=O)(=O)C1CCN(C(=O)OC(C)(C)C)CC1 [JC-910] | 18% | 73% | – | – |
| Cc1ccc(C(=O)Nc2cc(C(F)(F)F)n[nH]2)cc1S(=O)(=O)Nc1ccc(Cl)c(Cl)c1 [JC-866] | −15% | 23% | – | – |
| Cc1ccc(C(=O)Nc2ccc(Cl)c(Cl)c2)cc1S(=O)(=O)NCCNS(=O)(=O)c1ccc(Br)cc1C(F)(F)F [JC-995] | −34% | – | 93% | – |
| Cc1ccc(C(=O)Nc2ccc(Cl)c(Cl)c2)cc1S(=O)(=O)NCCCNS(=O)(=O)c1ccc(Br)cc1 [JC-998] | 0% | – | 100% | – |
| Cc1ccc(C(=O)Nc2ccc(Cl)c(Cl)c2)cc1S(=O)(=O)NCCNC(=O)OC(C)(C)C [JC-917] | −14% | 73% | – | – |
| Cc1ccc(C(=O)Nc2ccc(Cl)c(Cl)c2)cc1S(=O)(=O)NCCCNC(=S)Nc1ccc(F)cc1 [JC-1015] | 11% | – | 100% | – |
| Cc1ccc(C(=O)Nc2ccc(Cl)c(Cl)c2)cc1S(=O)(=O)NCc1nc2c(F)c(F)ccc2[nH]1.O=C(O)C(F)(F)F [JC-903] | 11% | 37% | – | – |
| Cc1ccc(C(=O)Nc2ccc(Cl)c(Cl)c2)cc1S(=O)(=O)NCCCc1ccccc1 [JC-908] | 18% | 62% | – | – |
| COc1ccc(NC(=S)NC2CCCN(S(=O)(=O)c3cc(C(=O)Nc4ccc(Cl)c(Cl)c4)ccc3C)C2)cc1 (stereo not shown) [JC-1004] | 32% | – | 94% | – |
| CCOc1ccc2cc(C3CC(c4ccc(Br)cc4)=NN3C(=O)CCC(=O)O)c(Cl)nc2c1 (stereo not shown) [TDRL-505, reference compound] | – | – | – | no effect |
| Cc1ccc(C(=O)Nc2ccc(Cl)c(Cl)c2)cc1S(=O)(=O)Nc1cccc([N+](=O)[O-])c1N [JC-899] | 3% | 14% | – | – |
| Cc1ccc(C(=O)Nc2ccc(Cl)c(Cl)c2)cc1S(=O)(=O)NCCCN.O=C(O)C(F)(F)F [JC-933] | 5% | 60% | – | – |
| O=C(Nc1ccc(Cl)c(Cl)c1)c1ccc(Cl)c(S(=O)(=O)Nc2ccc(Cl)c(Cl)c2)c1 [JC-853] | −17% | 81% | – | – |
| Cc1ccc(C(=O)Nc2nc3ccccc3[nH]2)cc1S(=O)(=O)Nc1ccc(Cl)c(Cl)c1 [JC-865] | −1% | 55% | – | – |
| Cc1ccc(C(=O)Nc2ccc(Cl)c(Cl)c2)cc1S(=O)(=O)N1CCCC(N)C1.O=C(O)C(F)(F)F (stereo not shown) [JC-959] | 64% | – | 100% | – |
| Cc1ccc(C(=O)Nc2ccc(Cl)c(Cl)c2)cc1S(=O)(=O)N1CCCC(NC(=O)OC(C)(C)C)C1 (stereo not shown) [JC-962] | 36% | – | 100% | – |
| Cc1ccc(C(=O)Nc2ccc(Cl)c(Cl)c2)cc1S(=O)(=O)NCCNS(=O)(=O)c1ccc(OCc2ccccc2)cc1 [JC-997] | −9% | – | 92% | – |
| Cc1ccc(C(=O)Nc2ccc(Cl)c(Cl)c2)cc1S(=O)(=O)N1CCC(NC(=O)OC(C)(C)C)CC1 [JC-896] | 17% | 92% | 69.4% | – |
| Cc1ccc(C(=O)Nc2ccc(Cl)c(Cl)c2)cc1S(=O)(=O)C1CCCC(NC(=O)OC(C)(C)C)C1 (stereo not shown) [JC-954] | 10% | – | 35% | – |
